In patent US10369130B2, “Antibacterial compounds” (AZIENDE CHIMICHE RIUNITE ANGELINI FRANCESCO A.C.R.A.F. …, priority 2014, dated 2019):
Structures can show the parent of a compound that is named as a salt.

Assays:
Assay type in all cases: biochemical
Conditions in all cases: single concentration (200, 100 or 50 μM), in duplicate, versus the positive control (vehicle)
Topoisomerase IV [1] = target: T1, Topoisomerase IV (Escherichia coli, UniProt P0AFI2+P20083); test: Topoisomerase IV decatenation assay (E. coli)
T1 construct: purchased Inspiralis, UK
Protocol: (§1) The above compounds were tested for the inhibition of the enzyme DNA gyrase in a gyrase supercoiling assay and for the inhibition of the enzyme topoisomerase IV in a decatenation assay, in both Gram positive and Gram negative bacteria, according to the following methods.
(§2) Both the assays were carried out according to a set-up method modified from the article to Blanche F, et al. “Differential Behaviors of Staphylococcus aureus and Escherichia coli Type II DNA Topoisomerases”, Antimicrob.
(§3) The compounds were screened at single concentration (200, 100 or 50 μM), in duplicate.
(§4) Ciprofloxacin and novobiocin were used as reference compounds, at single concentration of 200 and 50 μM, respectively.
(§5) Topoisomerase IV Decatenation Assay
(§6) S. aureus and E. coli Topoisomerase IV decatenation kits (Inspiralis, UK) were used. A master mix with a total volume sufficient for the number of reactions to perform was prepared with the following reagents: 5× assay buffer (50 mM HEPES-KOH (pH 7.6), 100 mM potassium glutamate, 10 mM magnesium acetate, 10 mM DTT, 1 mM ATP, 50 μg/ml albumin), kDNA substrate (200 ng/reaction), RNase-DNase free water. Aliquots of this mix were dispensed in each tube, then 10× compound stock solutions or vehicle control (DMSO), were added in each reaction tube.
(§7) Reaction was started with Topoisomerase IV enzyme (0.5 U/reaction) addition.
(§8) A sample added with an equal volume of dilution buffer was used as negative control (without enzyme).
(§9) The reaction tubes were gentle vortexed and incubated 30 minutes at 37° C. Each reaction was stopped by adding 30 μl of Stop Buffer and 30 μl of chloroform/isoamyl alcohol (24/1), briefly vortexed for 5-10 seconds and centrifuged at 20000×g for 2 minutes. Samples taken from the upper phase were loaded into 1% agarose gel and subjected to electrophoresis for 1 hour at 80V constant voltage in TAE (40 mM Tris-acetate, 2 mM EDTA).
(§10) Data acquisition and analysis. Due to the high molecular mass, kDNA could not enter an agarose gel under normal electrophoresis conditions, but remained in the wells. In the presence of Topo IV topoisomerase mini-circles (2.5 Kb) were released from kDNA by decatenation and were quickly and easily resolved in the gel at relatively high voltages.
(§11) Bands were visualized by ethidium bromide staining (dil 1:20000) for 30 minutes followed by destaining in distilled water for 10 minutes.
(§12) For single concentration screening assay, in order to evaluate the compounds activity on the enzymes, the bands of decatenated DNAs in the gel were photographed by a digital imaging system ImageQuant LAS 4000 (GE Healthcare) according to manufacturer's instructions.
(§13) The fluorescent intensity of each band was analyzed by ImageQuant TL software and it was expressed as volume (volume of the uncalibrated quantity of material in the image feature after subtraction of the background intensity by using rolling ball method).
(§14) Each band intensity was compared, as percentage, to vehicle sample band intensity, which served as positive control, on the same gel.
(§15) Inhibitory activity was expressed as percent of inhibition versus the positive control.

DNA gyrase [2] = target: T2, DNA gyrase (Escherichia coli, UniProt P0AES4+P0AES6); test: DNA gyrase supercoiling assay (E. coli)
T2 construct: purchased Inspiralis, UK
T2 sequence (P0AES4 whole entry, one chain of several): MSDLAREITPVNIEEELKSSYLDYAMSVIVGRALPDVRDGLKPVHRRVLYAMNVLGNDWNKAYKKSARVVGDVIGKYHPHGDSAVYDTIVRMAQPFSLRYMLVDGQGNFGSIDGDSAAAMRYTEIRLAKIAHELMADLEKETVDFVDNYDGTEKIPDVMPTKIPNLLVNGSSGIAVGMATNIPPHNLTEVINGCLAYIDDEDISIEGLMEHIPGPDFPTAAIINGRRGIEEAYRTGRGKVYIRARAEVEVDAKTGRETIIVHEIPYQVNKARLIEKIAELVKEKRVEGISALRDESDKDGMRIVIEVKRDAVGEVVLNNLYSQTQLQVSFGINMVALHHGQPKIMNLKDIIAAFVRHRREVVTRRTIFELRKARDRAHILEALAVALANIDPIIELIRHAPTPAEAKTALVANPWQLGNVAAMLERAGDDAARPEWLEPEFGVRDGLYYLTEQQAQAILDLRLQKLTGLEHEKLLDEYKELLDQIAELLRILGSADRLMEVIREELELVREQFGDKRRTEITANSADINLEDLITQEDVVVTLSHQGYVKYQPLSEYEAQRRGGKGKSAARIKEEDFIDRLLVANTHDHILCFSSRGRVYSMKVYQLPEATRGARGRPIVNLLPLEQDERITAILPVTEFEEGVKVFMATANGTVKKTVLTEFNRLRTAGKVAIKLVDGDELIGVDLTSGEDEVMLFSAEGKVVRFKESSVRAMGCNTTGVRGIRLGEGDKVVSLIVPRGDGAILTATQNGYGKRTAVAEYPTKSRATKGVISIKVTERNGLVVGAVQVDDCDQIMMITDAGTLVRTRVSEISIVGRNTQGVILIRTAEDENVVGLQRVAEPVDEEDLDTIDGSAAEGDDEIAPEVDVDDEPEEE
Protocol: as §1, §2, §3, §4
(§16) DNA Gyrase Supercoiling Assay.
(§17) Reagents from S. aureus and E. coli Gyrase Supercoiling Assay kits (Inspiralis, UK) were used. A master mix with a total volume sufficient for the number of reactions to perform was prepared with the following reagents: 5× assay buffer, relaxed pBR322 substrate (0.5 μg/reaction), RNase-DNase free water. Aliquotes of this mix were dispensed in each tube, then 10× compound stock solutions or vehicle control (DMSO), were added to each reaction tube.
(§18) Reaction was started with E. Coli (2 U/reaction) or S. aureus (1 U/reaction) gyrase enzyme addition.
as §8
(§19) The reaction tubes were gentle vortexed and incubated 30 minutes at 37° C. Each reaction was stopped by adding 30 μl of Stop Buffer and 30 μl chloroform/isoamyl alcohol (24/1), briefly vortexed for 5-10 seconds and centrifuged at 20000×g for 2 minutes. Samples were loaded onto 1% agarose gel and subjected to electrophoresis for 1 hour at 80V constant voltage in TAE (40 mM Tris-acetate, 2 mM EDTA).
(§20) Data acquisition and analysis. Treatment of relaxed pBR322 with DNA gyrase converted the relaxed topoisomers (DNAs of different linking number) to the supercoiled form of the plasmid, which migrates faster on an agarose gel. An upper band might also be visible, which consists of open-circular (nicked) DNA which is present in the relaxed substrate but co-migrates with some of the relaxed topoisomers.
as §11
(§21) In order to evaluate the compounds activity on the enzyme, the bands of supercoiled DNAs in the gel were photographed by a digital imaging system ImageQuant LAS 4000 (GE Healthcare) according to manufacturer's instructions.
(§22) The fluorescent intensity of each band was analysed by ImageQuant TL software and it was expressed as volume (volume of the uncalibrated quantity of material in the image feature after subtraction of the background intensity by using rolling ball method).
as §14, §15

DNA gyrase [3] = target: T3, DNA gyrase (Staphylococcus aureus, UniProt P0A0K8+P20831); test: DNA gyrase supercoiling assay (S. aureus)
T3 construct: purchased Inspiralis, UK
T3 sequence (P20831 whole entry): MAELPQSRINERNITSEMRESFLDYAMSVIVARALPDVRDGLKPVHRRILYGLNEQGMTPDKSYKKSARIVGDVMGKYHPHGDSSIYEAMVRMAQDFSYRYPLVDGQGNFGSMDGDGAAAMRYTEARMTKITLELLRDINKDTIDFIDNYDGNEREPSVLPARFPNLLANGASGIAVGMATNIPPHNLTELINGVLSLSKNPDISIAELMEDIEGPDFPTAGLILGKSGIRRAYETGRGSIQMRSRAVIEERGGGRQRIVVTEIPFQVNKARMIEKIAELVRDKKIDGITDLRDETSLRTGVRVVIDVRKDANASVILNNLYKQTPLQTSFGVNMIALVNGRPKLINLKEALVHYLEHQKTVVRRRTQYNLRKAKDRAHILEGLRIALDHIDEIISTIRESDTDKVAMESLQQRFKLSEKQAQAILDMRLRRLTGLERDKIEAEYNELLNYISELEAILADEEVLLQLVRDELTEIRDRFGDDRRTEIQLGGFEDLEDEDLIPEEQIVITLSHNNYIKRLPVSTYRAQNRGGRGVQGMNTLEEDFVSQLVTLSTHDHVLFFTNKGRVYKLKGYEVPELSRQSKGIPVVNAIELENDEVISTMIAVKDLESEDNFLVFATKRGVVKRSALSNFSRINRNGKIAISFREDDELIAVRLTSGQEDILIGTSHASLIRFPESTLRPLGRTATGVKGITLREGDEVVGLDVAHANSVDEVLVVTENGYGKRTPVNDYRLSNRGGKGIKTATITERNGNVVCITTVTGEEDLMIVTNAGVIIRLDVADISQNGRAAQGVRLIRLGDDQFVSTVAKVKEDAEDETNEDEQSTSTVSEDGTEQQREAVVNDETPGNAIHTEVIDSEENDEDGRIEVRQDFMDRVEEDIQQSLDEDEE
T3 sequence (P0A0K8 whole entry): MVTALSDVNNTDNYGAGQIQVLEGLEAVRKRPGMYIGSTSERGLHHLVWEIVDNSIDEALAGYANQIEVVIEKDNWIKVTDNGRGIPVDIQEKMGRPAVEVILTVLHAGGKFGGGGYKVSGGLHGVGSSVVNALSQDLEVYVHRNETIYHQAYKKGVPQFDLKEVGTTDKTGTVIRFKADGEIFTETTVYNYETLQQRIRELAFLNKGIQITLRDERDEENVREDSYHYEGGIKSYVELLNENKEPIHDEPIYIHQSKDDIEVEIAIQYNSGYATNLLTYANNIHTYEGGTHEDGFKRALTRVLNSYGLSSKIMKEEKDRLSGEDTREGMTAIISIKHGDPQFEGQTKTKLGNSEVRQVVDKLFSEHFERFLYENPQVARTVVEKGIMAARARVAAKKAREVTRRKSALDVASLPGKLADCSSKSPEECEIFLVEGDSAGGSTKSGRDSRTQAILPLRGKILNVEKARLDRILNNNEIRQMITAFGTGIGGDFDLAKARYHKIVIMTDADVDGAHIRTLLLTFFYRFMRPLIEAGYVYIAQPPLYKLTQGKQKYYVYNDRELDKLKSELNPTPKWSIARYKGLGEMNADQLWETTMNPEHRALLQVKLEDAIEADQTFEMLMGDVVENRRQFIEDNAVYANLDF
Protocol: as §1, §2, §3, §4, §16, §17, §18, §8, §19, §20, §11, §21, §22, §14, §15

Topoisomerase IV [4] = target: T4, Topoisomerase IV (Staphylococcus aureus, UniProt P0C1S7+P0C1U9); test: Topoisomerase IV decatenation assay (S. aureus)
T4 construct: purchased Inspiralis, UK
T4 sequence (P0C1S7 whole entry): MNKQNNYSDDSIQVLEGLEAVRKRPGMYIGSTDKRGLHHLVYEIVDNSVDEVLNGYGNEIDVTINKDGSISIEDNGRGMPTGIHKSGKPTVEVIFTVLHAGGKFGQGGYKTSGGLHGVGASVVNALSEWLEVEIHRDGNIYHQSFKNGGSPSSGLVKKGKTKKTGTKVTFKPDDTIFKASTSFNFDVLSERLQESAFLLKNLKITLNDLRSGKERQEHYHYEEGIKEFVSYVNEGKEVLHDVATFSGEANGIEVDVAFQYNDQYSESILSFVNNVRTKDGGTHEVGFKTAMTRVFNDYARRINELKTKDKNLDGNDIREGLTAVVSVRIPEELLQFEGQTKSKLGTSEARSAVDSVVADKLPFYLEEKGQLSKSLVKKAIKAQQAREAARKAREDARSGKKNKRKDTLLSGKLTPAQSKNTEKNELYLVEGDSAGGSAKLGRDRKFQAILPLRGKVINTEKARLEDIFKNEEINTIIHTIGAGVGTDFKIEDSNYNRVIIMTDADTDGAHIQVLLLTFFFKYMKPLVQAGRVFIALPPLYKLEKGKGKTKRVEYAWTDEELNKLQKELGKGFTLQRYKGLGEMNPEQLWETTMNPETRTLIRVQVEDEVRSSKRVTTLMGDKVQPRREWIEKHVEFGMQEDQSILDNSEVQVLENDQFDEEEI
T4 sequence (P0C1U9 whole entry): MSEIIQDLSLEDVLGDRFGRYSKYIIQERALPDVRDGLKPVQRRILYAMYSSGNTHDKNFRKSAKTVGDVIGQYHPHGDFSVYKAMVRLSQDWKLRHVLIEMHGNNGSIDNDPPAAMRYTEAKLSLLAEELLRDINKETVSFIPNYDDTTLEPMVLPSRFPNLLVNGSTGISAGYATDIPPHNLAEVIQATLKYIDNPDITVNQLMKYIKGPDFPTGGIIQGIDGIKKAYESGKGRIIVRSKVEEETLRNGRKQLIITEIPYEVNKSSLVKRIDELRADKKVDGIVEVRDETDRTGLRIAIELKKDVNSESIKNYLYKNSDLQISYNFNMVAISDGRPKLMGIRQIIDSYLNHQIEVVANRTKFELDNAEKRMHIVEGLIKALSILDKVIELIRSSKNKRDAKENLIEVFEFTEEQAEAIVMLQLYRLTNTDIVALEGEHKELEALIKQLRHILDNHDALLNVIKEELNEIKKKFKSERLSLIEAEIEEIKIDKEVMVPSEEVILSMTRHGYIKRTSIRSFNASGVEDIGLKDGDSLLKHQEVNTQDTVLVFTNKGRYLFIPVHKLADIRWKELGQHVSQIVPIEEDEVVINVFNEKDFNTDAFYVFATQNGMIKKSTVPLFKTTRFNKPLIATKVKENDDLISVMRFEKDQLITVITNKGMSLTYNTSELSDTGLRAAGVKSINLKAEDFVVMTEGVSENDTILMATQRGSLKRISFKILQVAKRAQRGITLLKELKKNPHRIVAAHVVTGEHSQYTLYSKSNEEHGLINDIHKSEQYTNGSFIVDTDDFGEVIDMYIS
Protocol: as §1, §2, §3, §4, §5, §6, §7, §8, §9, §10, §11, §12, §13, §14, §15

Row | Compound | % inhibition Topo IV (Topoisomerase IV [1]) | % inhibition DNA gyrase (DNA gyrase [2]) | % inhibition DNA gyrase (DNA gyrase [3]) | % inhibition Topo IV (Topoisomerase IV [4])
1 | O=C(O)CC(NC[C@@H](O)CN1CCN(c2nccc3ccc(F)cc23)CC1)C1CCCCC1 (stereo partly drawn) [Compound 136, 3-cyclohexyl-3-({(2R)-3-[4-(7-fluoroisoquinolin-1-yl)piperazin-1-yl]-2-hydroxypropyl}amino)propanoic acid] | n/a (n/a = not active) | 57% | 75% | –
2 | c1ccc2c(N3CCN(CCNCc4ccc5c(c4)OCO5)CC3)nccc2c1 [Compound 130, N-(1,3-benzodioxol-5-ylmethyl)-2-[4-(isoquinolin-1-yl)piperazin-1-yl]ethanamine] | n/a (n/a = not active) | n/a (n/a = not active) | 74% | –
3 | O=C(CN1CCC(Nc2cc(=O)oc3ccccc23)CC1)Nc1nccc2ccccc12 [Compound 117, N-(isoquinolin-1-yl)-2-{4-[(2-oxo-2H-chromen-4-yl)amino]piperidin-1-yl}acetamide] | n/a (n/a = not active) | 75% | n/a (n/a = not active) | –
4 | COc1ccc2c(N3CCN(CCCNC(=O)c4cccnc4)CC3)nccc2c1 [Compound 36, N-{3-[4-(6-methoxyisoquinolin-1-yl)piperazin-1-yl]propyl}pyridine-3-carboxamide hydrochloride] | n/a (n/a = not active) | n/a (n/a = not active) | 90% | n/a (n/a = not active)
5 | C[N+]1(CCCc2nccc3ccccc23)CCC(Nc2cc(=O)oc3ccccc23)CC1 (stereo not shown) [Compound 123] | n/a (n/a = not active) | 52% | n/a (n/a = not active) | n/a (n/a = not active)
6 | O=C(O)CC(NCCNC1CCN(c2nccc3ccc(F)cc23)CC1)C1CCCCC1 (stereo not shown) [Compound 190, lithium 3-cyclohexyl-3-[(2-{[1-(7-fluoroisoquinolin-1-yl)piperidin-4-yl]amino}ethyl)amino]propanoate] | n/a (n/a = not active) | 61% | 73% | n/a (n/a = not active)
7 | O=c1cc(NC[C@@H](O)[C@@H](O)C2CCN(c3nccc4ccc(F)cc34)CC2)c2ccccc2o1 (racemic) [Compound 129, (2R,3S) and (2S,3R) 4-({3-[1-(7-fluoroisoquinolin-1-yl)piperidin-4-yl]-2,3-dihydroxypropyl}amino)-2H-chromen-2-one hydrochloride] | n/a (n/a = not active) | 69% | n/a (n/a = not active) | n/a (n/a = not active)
8 | O=c1cc(NCCCN2CCN(c3nccc4ccccc34)CC2)c2ccccc2[nH]1 [Compound 58, 4,4-({3-[4-(isoquinolin-1-yl)piperazin-1-yl]propyl}amino)quinolin-2(1H)-one hydrochloride] | n/a (n/a = not active) | 100% | n/a (n/a = not active) | –
9 | O=C(CC(NCCNC1CCN(c2nccc3ccc(F)cc23)CC1)C1CCCCC1)NO (stereo not shown) [Compound 191, 3-cyclohexyl-3-[(2-{[1-(7-fluoroisoquinolin-1-yl)piperidin-4-yl]amino}ethyl)amino]-N-hydroxypropanamide] | n/a (n/a = not active) | n/a (n/a = not active) | 81% | –
10 | c1ccc2c(N3CCN(CCCNCc4ccc5c(c4)OCO5)CC3)nccc2c1 [Compound 120, N-(1,3-benzodioxol-5-ylmethyl)-3-[4-(isoquinolin-1-yl)piperazin-1-yl]propan-1-amine] | n/a (n/a = not active) | n/a (n/a = not active) | 76% | –
11 | O=C(O)[C@@H](NC[C@@H](O)CN1CCN(c2nccc3ccc(F)cc23)CC1)C1CCCCC1 [Compound 140, (2S)-cyclohexyl({(2R)-3-[4-(7-fluoroisoquinolin-1-yl)piperazin-1-yl]-2-hydroxypropyl}amino)acetic acid] | n/a (n/a = not active) | 68% | 92% | –
12 | c1ccc2sc(CNCCCN3CCN(c4nccc5ccccc45)CC3)cc2c1 [Compound 119, N-(1-benzothiophen-2-ylmethyl)-3-[4-(isoquinolin-1-yl)piperazin-1-yl]propan-1-amine] | n/a (n/a = not active) | n/a (n/a = not active) | 60% | –
13 | O=C(O)[C@H](NC[C@@H](O)CN1CCN(c2nccc3ccc(F)cc23)CC1)C1CCCCC1 [Compound 139, (2R)-cyclohexyl({(2R)-3-[4-(7-fluoroisoquinolin-1-yl)piperazin-1-yl]-2-hydroxypropyl}amino)acetic acid] | n/a (n/a = not active) | n/a (n/a = not active) | 54% | –
14 | COC(=O)CC(NCCNC1CCN(c2nccc3ccc(F)cc23)CC1)C1CCCCC1 (stereo not shown) [Compound 189, methyl 3-cyclohexyl-3-[(2-{[1-(7-fluoroisoquinolin-1-yl)piperidin-4-yl]amino}ethyl)amino]propanoate] | n/a (n/a = not active) | n/a (n/a = not active) | 84% | –
15 | O=C(O)[C@@H](NC[C@H](O)CN1CCN(c2nccc3ccc(F)cc23)CC1)C1CCCCC1 [Compound 138, (2S)-cyclohexyl({(2S)-3-[4-(7-fluoroisoquinolin-1-yl)piperazin-1-yl]-2-hydroxypropyl}amino)acetic acid] | n/a (n/a = not active) | n/a (n/a = not active) | 89% | –
16 | OCCC(NCCNC1CCN(c2nccc3ccc(F)cc23)CC1)C1CCCCC1 (stereo not shown) [Compound 167, 3-cyclohexyl-3-[(2-{[1-(7-fluoroisoquinolin-1-yl)piperidin-4-yl]amino}ethyl)amino]propan-1-ol] | n/a (n/a = not active) | n/a (n/a = not active) | 70% | –
17 | O=C(O)CC(NC[C@H](O)CN1CCN(c2nccc3ccc(F)cc23)CC1)C1CCCCC1 (stereo partly drawn) [Compound 137, 3-cyclohexyl-3-({(2S)-3-[4-(7-fluoroisoquinolin-1-yl)piperazin-1-yl]-2-hydroxypropyl}amino)propanoic acid] | n/a (n/a = not active) | 57% | 75% | –
